Several values for one entry are separate records, joined by “and”; a condition that tells them apart may be missing. Equal values may be shown once. Square brackets hold non-standard residues; d marks the D form. Peptide text beside a SMILES is read from it. pY = N[C@@H](Cc1ccc(OP(=O)(O)O)cc1)C(=O)O
Experiments:
DLAR D2 = biological target: T1, DLAR D2 (Drosophila melanogaster, UniProt P16621); assay: Surface Plasmon Resonance peptide binding, DLAR D2; details: column second binding site, single-site model
T1 construct: DLAR 1728-2029; His tag (pET-15b or pET-22b); made in house; host or cells: E. coli BL21(DE3)
T1 sequence (P16621 1728-2029): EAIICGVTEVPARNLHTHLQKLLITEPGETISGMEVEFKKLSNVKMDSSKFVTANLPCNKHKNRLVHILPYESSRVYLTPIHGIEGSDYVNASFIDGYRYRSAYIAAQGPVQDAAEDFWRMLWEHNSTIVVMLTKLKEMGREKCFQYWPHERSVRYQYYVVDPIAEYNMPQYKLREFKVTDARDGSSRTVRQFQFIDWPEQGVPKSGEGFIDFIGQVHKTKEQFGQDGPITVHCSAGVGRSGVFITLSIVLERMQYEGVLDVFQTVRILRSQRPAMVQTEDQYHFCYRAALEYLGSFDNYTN
Protocol: The binding of phosphotyrosine peptides to the PTP domains was studied by Surface Plasmon Resonance on a Biacore-2000 instrument (BIAcore, AB). All experiments were conducted at 25°C. DLAR PTP domains were immobilized onto carboxylated dextran CM5 chips (BIAcore AB) using the standard amine coupling procedure as recommended by the manufacturer. Binding and kinetic assays were performed in 10 mM HEPES, pH 8.0, 150 mM NaCl, 10 mM DTT and 3 mM EDTA at a flow rate of 5 µL/min. The peptides were used at concentrations ranging from 50–700 µM. Dissociation was initiated by replacing the analyte with buffer. The association and dissociation curves were monitored for 600 sec. Sensograms were analyzed with BIA-evaluation software version 2 (BIAcore AB). Sensograms for DLAR D1D2, DLAR D1HSSD2 and DLAR D1D2HSS were fitted to two-site binding equations. DLAR D1 and DLAR D2 sensograms were fitted using a single-site binding model.

DLAR D1D2 = biological target: T2, DLAR D1D2 (Drosophila melanogaster, UniProt P16621); assay: Phosphatase assay using pNPP, DLAR D1D2; type: biochemical; details: 2 mM DTT
T2 construct: DLAR 1448-2029; His tag (pET-15b or pET-22b); made in house; host or cells: E. coli BL21(DE3)
T2 sequence (P16621 1448-2029): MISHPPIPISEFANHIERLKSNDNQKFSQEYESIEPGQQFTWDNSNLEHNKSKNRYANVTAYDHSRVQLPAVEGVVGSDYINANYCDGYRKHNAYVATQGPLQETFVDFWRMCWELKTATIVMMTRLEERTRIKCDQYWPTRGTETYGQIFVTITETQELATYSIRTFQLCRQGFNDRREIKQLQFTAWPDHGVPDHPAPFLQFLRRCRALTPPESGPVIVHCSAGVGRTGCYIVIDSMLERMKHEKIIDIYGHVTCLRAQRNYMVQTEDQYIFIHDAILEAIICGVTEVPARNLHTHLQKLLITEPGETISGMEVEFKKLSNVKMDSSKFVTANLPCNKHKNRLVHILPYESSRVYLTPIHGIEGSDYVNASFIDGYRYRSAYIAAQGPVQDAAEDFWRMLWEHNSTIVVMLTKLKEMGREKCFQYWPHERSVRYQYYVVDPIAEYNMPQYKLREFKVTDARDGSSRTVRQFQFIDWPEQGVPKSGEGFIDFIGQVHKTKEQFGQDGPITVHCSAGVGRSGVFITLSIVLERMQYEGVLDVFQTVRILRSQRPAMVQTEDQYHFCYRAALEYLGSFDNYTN
Protocol: (§1) Phosphatase activity of the recombinant PTP domains was determined by using para-Nitrophenylphosphate (pNPP), a small molecule generic substrate, as well as phosphotyrosine containing peptides. The pNPP assay was performed as reported previously, with a modification in the buffer composition (25 mM Citrate, Glycine and HEPES (CGH), pH 6.5, 100 mM NaCl and 2 mM DTT). Phosphatase activity with the phosphotyrosine peptides was ascertained by the malachite green reaction as described for PTPs previously. Briefly, the reaction mixture comprised of 0.01 µM protein incubated with increasing concentrations of different peptides in 25 mM citrate buffer pH 6.0, 100 mM NaCl and 2 mM DTT for 15 min at 25°C. The reaction was stopped by the addition of the Biomol Green reagent (Enzo Life Sciences) and the colour developed after 20 min was quantified at 650 nm. For all the assays, kinetic constants for the steady state catalysis were obtained by fitting the reaction curves to the Michaelis-Menten equation using the nonlinear regression module of Sigma plot software (Systat Software, Inc.).
The tandem PTP domains of PTP99A (PTP99A D1D2) and DLAR (DLAR D1D2) , the individual PTP domains (D1 and D2) as well as the active site mutants were expressed in E. coli and were purified using the protocols described earlier (Figure 1a, Figure S1a, b & c). The biochemical characterization and catalytic activity measurements were performed using pNPP as a substrate. […] Thus the D2 domain appears to have a regulatory role in both RPTPs- decreasing the catalytic activity in the case of DLAR while increasing the catalytic activity in the case of PTP99A (Figure 1b).

[1] = test system: D958C mutant of the D2 domain of PTP99A; assay: Phosphatase assay using pNPP, PTP99A D2 D958C mutant; type: biochemical, Drosophila melanogaster; details: D958C point mutant
Protocol: as §1
Supplementary file pone.0024766.s005.tif: Figure S5 Characterization of the D958C mutant of the D2 domain of PTP99A. A: Size exclusion profile of wild-type and D958C mutant of the D2 domain of PTP99A. B: Circular Dichroism (CD) spectra of the wild type and D958C mutant. […]

| Structure (SMILES) | kon (DLAR D2; SPR Biacore-2000, 25°C, 10 mM HEPES pH 8.0, 150 mM NaCl, 10 mM DTT, 3 mM EDTA, peptides 50–700 µM, read-out: ka) [M⁻¹ s⁻¹] | Kd (DLAR D2; SPR, 25°C, pH 8.0) [µM] | Vmax (DLAR D1D2; 25 mM Citrate, Glycine and HEPES (CGH), pH 6.5, 100 mM NaCl, Michaelis-Menten fit) | Kcat (DLAR D1D2; CGH buffer pH 6.5, 100 mM NaCl) [s⁻¹] | Kcat/Km (DLAR D1D2; CGH buffer pH 6.5, 100 mM NaCl) | phosphatase activity [1] |
| --- | --- | --- | --- | --- | --- | --- |
| CC(C)C[C@H](NC(=O)[C@H](C)NC(=O)CNC(=O)[C@H](Cc1ccc(OP(=O)(O)O)cc1)NC(=O)[C@H](CC(=O)O)NC(=O)[C@@H]1CCCN1C(=O)[C@H](CCC(=O)O)NC(=O)[C@H](C)NC(=O)[C@@H](N)[C@@H](C)O)C(=O)N[C@@H](Cc1ccc(O)cc1)C(=O)N[C@@H](CCC(=O)O)C(=O)O [Cuticle peptide] (H-TAEPD[pY]GALYE-OH) | 52.8 ± 0.69 | 104.5 ± 0.06 | – | – | – | – |
| O=[N+]([O-])c1ccc(OP(=O)(O)O)cc1 [pNPP, para-Nitrophenylphosphate] | – | – | 6.19 µmol/min/mg and 6.19 ± 0.14 µmol/min/mg | 6.88 ± 0.16 | 3.23 ± 0.09 x 10^3 sec^-1M^-1 | catalytically inactive |
